Results taken from patent US20190360054A1, “METHOD FOR DIAGNOSIS OF METASTATIC CANCER OR TAXANE-BASED DRUG-RESISTANT CANCER BY USING LMCD1 PROTEIN AND GENE CODING THEREFOR” (AICT (ADVANCED INSTITUTES OF CONVERGENCE TECHNOLOGY), priority 2016, published 2019).

Key:
[1] = test system: LMCD1 promoter in MCF10CA1a.cl1 cells; experiment: LMCD1 promoter luciferase assay with TGF-β stimulation; format: cell-based, human; conditions: 3 ng/ml TGF-β, 24 hours, Smad3 EPSM adenovirus-infected cells
Procedure: In particular, for the LMCD1 promoter analysis, MCF10CA1a.cl1 cells were infected with GFP and Smad3. EPSM adenovirus for 2 days, and then transiently transfected with an Lmcd1 promoter using FuGENE HD (Promega). 24 hours before harvesting, the cells were stimulated with 3 ng/ml of TGF-β. Luciferase activity was analyzed using a Luciferase Assay System kit (Promega) in accordance with the manufacturer's protocol. All assays were performed in triplicate, and all values were normalized to transfection efficiency as determined by β-galactosidase activity.

[2] = test system: LMCD1 mRNA in MDA-MB231 cells; experiment: RT-PCR of LMCD1 mRNA after TGF-β treatment; format: cell-based, human; conditions: 5 ng/ml TGF-β, 24 hours, Smad3 EPSM adenovirus-infected cells
Procedure: For the measurement of LMCD1 mRNA, MDA-MB231 cells were infected with GFP and Smad3. EPSM adenovirus for 2 days, and then 2 hours before TGF-β treatment, the cells were pre-treated with 10 μM of SB431542 and treated with 5 ng/ml of TGF-β, followed by incubation for 24 hours. Total RNA was extracted from the cells using a TRIzol reagent (Invitrogen) in accordance with the manufacturer's protocol. The extracted RNA was converted into cDNA using M-MLV reverse transcriptase (Promega). The cDNA was synthesized and subjected to RT-PCR using a specific primer pair by using an AccuPower™ PCR PreMix kit (Bioneer Co.). Gene mRNAs were normalized to GAPDH.

[3] = test system: LMCD1-overexpressing MCF10CA1a.cl1 cells; experiment: MTT assay of susceptibility to paclitaxel in LMCD1-overexpressing cells; format: cell-based, human; conditions: MCF10CA1a.cl1 cells when LMCD1 was overexpressed, 72 hours
Procedure: To investigate whether LMCD1 protein-overexpressing breast cancer cells have resistance to a taxane-based anticancer agent, an MTT assay, which is used to evaluate cell viability, was performed on MCF-10CA1a.cl1, which are human MCF-10A-based breast cancer cell lines, and MDA-MB231. The MCF-10CA1a.cl1 and MDA-MB231 cell lines are characterized as malignant breast cancer cell lines with high metastasis.
In particular, human MCF-10A-based breast cancer cell lines, i.e., MCF-10CA1a.cl1 and MDA-MB231, were maintained in a DMEM culture solution containing 10% fetal bovine serum and 1% penicillin/streptomycin (WeIGENE) in a CO2 incubator at 37° C.
To overexpress the LMCD1 protein in cells, LMCD1 was cloned into retroviral vector pLPCX, and LMCD1 retrovirus was obtained using Plat-GP cells. The metastatic breast cancer cells were infected with the LMCD1 retrovirus, LMCD1 protein-overexpressing cells were selected using puromycin, and then the selected cells were incubated in a DMEM culture solution containing 10% fetal bovine serum and 1% penicillin/streptomycin (WeIGENE) in a CO2 incubator at 37° C.
The cells were seeded in 96 wells at a density of 3,000 cells per well and incubated for 24 hours. […] Absorbance at 580 nm was measured using a 96-well microplate detector (Molecular Devices).

[4] = Production of paclitaxel-resistant cells by repeated paclitaxel treatment; format: cell-based; conditions: paclitaxel raised in increments of 0.5 nM over passages; read-out: IC50 value of paclitaxel at which the resistant cells did not die
Procedure: In particular, parental cells were treated with paclitaxel at a small concentration of 0.5 nM, and alive cells were repeated treated with paclitaxel three or four times while being passaged.

[5] = test system: MCF10CA1a.cl1 cells, MDA-MB231 cells; experiment: MTT assay of paclitaxel resistance after Smad3 EPSM adenovirus infection; format: cell-based, human
Text: GFP, Smad3 wild-type, C-terminal phosphorylation-inhibiting mutant (3SA), Smad3 linker phosphorylation-activating mutant (STD), and a Smad3 linker phosphorylation-inhibiting mutant (EPSM) adenovirus were supplied from Dr. Sushil G. Rane (NIDDK, NIH, Bethesda, Md.). To measure transduction efficiency, GFP adenovirus was used as a control. The cells were transfected with 75 to 100 virus particles/cell in a cell solution, and each transfection procedure was repeated three times.
In particular, MCF10CA1a.cl1 cells, MDA-MB231 cells, and the cells produced according to Example 3-1 were seeded in 96-wells at a density of 3,000 cells/well and incubated for 24 hours. The culture solution was removed and a culture solution containing paclitaxel or docetaxel was added to each well to a final volume of 100 μl/well. After incubation for 72 hours, the culture solution was removed from the culture, and 0.5 mg/ml of 3-(4,5-dimethylthiazol-2-yl)-2,5-diphenyltetrazolium bromide (MTT) was added to each well, followed by incubation for 2 hours. Media containing an MTT solution was carefully removed, and 200 μl of dimethyl sulfoxide was added to each well, followed by incubation at room temperature for 5 minutes. Absorbance at 580 nm was measured using a 96-well microplate detector (Molecular Devices).

[6] = test system: MCF10CAT1k.cl2 (M-II) and MCF10CA1a.cl1 cells; experiment: MTT assay of paclitaxel resistance after treatment with LMCD1-containing conditioned media; format: cell-based, human; conditions: cells treated with conditioned media of LMCD1-overexpressing MCF10CA1a.cl1 cells
Procedure: For MTT assay to examine resistance to paclitaxel, the cells were seeded in 96 wells at a density of 3,000 cells per well and incubated for 24 hours. The culture solution was removed, and a culture solution containing the concentrated conditioned media acquired from LPCX and LMCD1-overexpressing MCF10CA1a.cl1 cells was added to each well to a final volume of 100 μl/well. After incubation for 72 hours, the culture solution was removed from the culture, and 0.5 mg/ml of 3-(4,5-dimethylthiazol-2-yl)-2,5-diphenyltetrazolium bromide (MTT) was added to each well, followed by incubation for 2 hours. PBS containing an MTT solution was carefully removed, and 200 μl of dimethyl sulfoxide was added to each well, followed by incubation at room temperature for 5 minutes. Absorbance at 580 nm was measured using a 96-well microplate detector (Molecular Devices).

Row | Molecule | LMCD1 transcriptional activity (luciferase) [1] | LMCD1 mRNA expression level [2] | resistance to paclitaxel (cell viability, MTT) [3] | IC50 [4] | susceptibility to paclitaxel (MTT) ([5]; LMCD1 depleted in Smad3 EPSM adenovirus-infected cells (EPSM-SV-shLmcd1 #1)) | paclitaxel resistance (cell viability, MTT) ([5]; Smad3 linker phosphorylation blocked (EPSM adenovirus), compared to control) | resistance to paclitaxel (MTT) [6]
1 | TGF-β | increased | increased | – | – | – | – | –
2 | CC(=O)O[C@H]1C(=O)[C@@]2(C)[C@H]([C@H](OC(=O)c3ccccc3)[C@]3(O)C[C@H](OC(=O)[C@H](O)[C@@H](NC(=O)c4ccccc4)c4ccccc4)C(C)=C1C3(C)C)[C@]1(OC(C)=O)CO[C@@H]1C[C@@H]2O [paclitaxel] | – | – | increased | 50 nM | restored | induced | significantly increased
